Results on five molecules are retold here after patent publication US10172859B2, “Arylquinazolines” (Merck Patent GmbH, priority 2013, dated 2019).

Where two headings read alike, the source gives them in different places.

In series [1] the target is T1, Kv11.1 (hERG) channel (Homo sapiens (Human), UniProt Q12809).
Experimental: (§1) C) Kv11.1 (hERG) ION CHANNEL ACTIVITY (Patch Clamp Assay)
(§2) The patch-clamp measurement was carried out at room temperature in whole-cell configuration on human embryonic kidney cells (HEK293) which have been transfected in a stable manner with the hERG gene.
(§3) The whole-cell configurations were carried out using an automated patch clamp device (Patchliner™, Nanion Technologies, Munich). This is a glass chip-based system with which automated whole-cell measurements on up to 8 cells simultaneously are possible. The glass chip has a hole of defined size to which the cell is transferred into the Gigaseal by application of a reduced pressure and brought into the whole-cell configuration. Buffer, cell suspension and test substances were added to microchannels of the chip using a Teflon-coated pipette. The cells were clamped to a holding potential of −80 mV. For measurement of substancepromoted inhibition of the Kv11.1 channel, the following voltage protocol was applied at 10-second intervals: 51 ms/−80 mV, 500 ms/+40 mV, 500 ms/−40 mV, 200 ms/−80 mV. The leakage current is subtracted by means of the P4 method. The cells were resuspended in extracellular buffer (EC) and applied to the chip. After the cell had been collected, the seal was improved by addition of a seal enhancer buffer. As soon as the whole-cell configuration had been reached, the seal enhancer buffer was washed out and replaced by extracellular buffer. The measurement started in EC for 1.5 min. DMSO (vehicle control, 0.1% of DMSO) was then applied, and the control current was recorded for 3 min. The test substance was subsequently added twice in the same concentration, and the potassium current was measured for 3.5 min in each case.
(§4) The reference substance used was the Kv11.1 (hERG) ion channel blocker quinidine. The effects of test substances and quinidine were standardised to the associated vehicle control. The effect on the Kv11.1 (hERG) channel activity was assessed from the potassium current at −40 mV. For the calculation, the current was evaluated for the respective final trace.
(§5) During the measurement, an aliquot of the test substance was taken for concentration determination. The sample was measured immediately by HPLC, and the final concentration was determined from a calibration curve.
For series [2], the target named is phospho-serine 2056 DNA-PK in HCT116 cells (Homo sapiens (Human), UniProt P78527). The series is described as follows: DNA-PK phosphorylation at serine 2056 (cellular), ELISA in bleomycin-treated HCT116 cells. Type of series: cell-based. The settings on record: read-out: IC50 pDNA-PK. The method, then:
HCT116 cells were cultivated at 37° C. and 10% CO2 in MEM alpha medium with 10% of foetal calf serum and 2 mM glutamine. The cells were detached from the base of the culture vessels with the aid of trypsin/EDTA, centrifuged off in centrifuge tubes, taken up in fresh medium, and the cell density was determined. 100,000 cells were sown in 1 ml of culture medium per cavity of a 24-well cell culture plate and cultivated overnight. Next day, 10 μM bleomycin (DNA intercalator and inductor of DNA double-strand breaks) and test substances in fresh culture medium were added to the cells, and these were cultivated for a further six hours. […] The 96-well ELISA plates were subsequently treated with a detection antibody (Abcam ab79444: total DNA-PK) and a streptavidin-HRP conjugate. The development of the enzymatic reaction was carried out with the aid of a chemiluminescent reagent, the chemiluminescence was measured with the aid of a Mithras LB940. The signals with the phospho-DNA-PK-specific antibody were standardised to the signal with the antibody against the total protein DNA-PKc. […] The DMSO control was used as blank.
For orientation: An ELISA detects its analyte on a solid surface through an enzyme-linked reagent.

Series [3] has as its target DNA-PK/protein complex (Homo sapiens (Human), UniProt P78527). In words: DNA-PK assay (biochemical), flashplate kinase assay. As to the method:
A) DNA-PK Assay (Biochemical)
The kinase assay was carried out in streptavidin-coated […] microtitre flashplates. […] The reaction was stopped using 50 μl/well of 200 mM EDTA. After incubation for a further 30 min at room temperature, the liquid was removed. Each well was washed three times with 100 μl of 0.9% saline solution. A nonspecific reaction (blank value) was determined using 10 μM of an innate kinase inhibitor. The radioactivity measurement was carried out using a TopCount. IC50 values were calculated in RS1.

Series [4] addresses T1, Kv11.1 (hERG) channel. The series is described as follows: Kv11.1 (hERG) ion channel activity (patch clamp assay). In general terms: hERG is a cardiac potassium channel; its block is linked to QT prolongation.
Experimental: as §1, §2, §3, §4, §5
Where [5] appears, read: cellular, HCT116, 10 μM bleomycin, six hours.

T1 sequence (Q12809 whole entry): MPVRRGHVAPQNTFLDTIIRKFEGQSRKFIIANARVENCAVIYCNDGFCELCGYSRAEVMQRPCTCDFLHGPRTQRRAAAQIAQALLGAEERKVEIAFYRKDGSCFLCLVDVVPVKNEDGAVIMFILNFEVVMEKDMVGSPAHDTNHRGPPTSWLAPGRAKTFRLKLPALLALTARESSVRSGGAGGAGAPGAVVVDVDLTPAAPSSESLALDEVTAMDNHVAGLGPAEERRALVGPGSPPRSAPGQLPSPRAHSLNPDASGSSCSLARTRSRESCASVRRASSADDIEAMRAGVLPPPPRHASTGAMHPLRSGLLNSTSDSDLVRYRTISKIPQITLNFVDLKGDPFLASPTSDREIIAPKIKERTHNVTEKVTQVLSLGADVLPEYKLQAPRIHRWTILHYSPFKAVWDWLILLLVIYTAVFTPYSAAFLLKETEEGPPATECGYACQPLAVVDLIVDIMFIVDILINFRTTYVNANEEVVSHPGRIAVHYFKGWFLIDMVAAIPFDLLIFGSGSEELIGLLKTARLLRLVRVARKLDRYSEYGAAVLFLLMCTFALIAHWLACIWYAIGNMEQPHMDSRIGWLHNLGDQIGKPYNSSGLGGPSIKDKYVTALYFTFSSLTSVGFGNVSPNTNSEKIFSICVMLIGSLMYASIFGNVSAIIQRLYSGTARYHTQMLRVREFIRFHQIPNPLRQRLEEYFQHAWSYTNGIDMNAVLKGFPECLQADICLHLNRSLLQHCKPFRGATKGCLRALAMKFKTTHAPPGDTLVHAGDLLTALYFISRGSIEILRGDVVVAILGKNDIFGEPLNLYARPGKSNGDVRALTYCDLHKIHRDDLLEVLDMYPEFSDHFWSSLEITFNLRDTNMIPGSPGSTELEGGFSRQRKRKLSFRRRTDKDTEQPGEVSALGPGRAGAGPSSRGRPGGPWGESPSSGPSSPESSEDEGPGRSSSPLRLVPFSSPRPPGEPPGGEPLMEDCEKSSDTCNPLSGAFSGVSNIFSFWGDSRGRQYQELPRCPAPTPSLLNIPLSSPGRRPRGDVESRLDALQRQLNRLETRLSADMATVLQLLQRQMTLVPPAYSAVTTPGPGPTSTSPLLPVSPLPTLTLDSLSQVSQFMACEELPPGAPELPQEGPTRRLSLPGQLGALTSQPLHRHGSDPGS

Regarding `CCNCc1csc(C(O)c2cc(-c3ncnc4cc(N5CCOCC5)ccc34)c(F)cc2Cl)n1` (centres unmarked) [Example 190], in series [1], the Ki fell in the range of 15 to 25 µM.

For `Cn1nccc1C(O)c1ccc(F)c(-c2nc(Cl)nc3cc(N4CCOCC4)ccc23)c1` (centres unmarked) [Example 214, [3-(2-Chloro-7-morpholin-4-yl-quinazolin-4-yl)-4-fluoro-phenyl]-(2-methyl-2H-pyrazol-3-yl)-methanol], the IC50 fell in the range of 10 to 30 µM in series [2] (setting [5]) and 0.003 to 0.007 µM in series [3] (enzymatic, 5 μM ATP). This molecule also came in with a Ki in series [4] of 15 to 25 µM.

For the molecule `OC(c1ccc(F)c(-c2ncnc3cc(N4CCOCC4)ccc23)c1)c1nccnc1I` (centres unmarked) [Example 462, [4-Fluoro-3-(7-morpholin-4-yl-quinazolin-4-yl)-phenyl]-(3-iodo-pyrazin-2-yl)-methanol], the Ki in series [4] (read-out: Ki [Kv1.11 hERG], hERG patch clamp assay) is 15 to 25 µM.

For the molecule `COc1nccnc1C(C(N)=O)c1cc(-c2ncnc3cc(N4CCOCC4)ccc23)ccc1F` (centres unmarked) [Example 316], the IC50 in series [2] (DNA-PK phosphorylation at serine 2056, HCT116 cells) is 5 to 10 µM; in series [3] (biochemical DNA-PK assay) it was greater than 0.03 µM. Moreover, the Ki in series [4] fell in the range of 15 to 25 µM.

For `COc1nnc(Cl)cc1C(O)c1ccc(F)c(-c2ncnc3cc(N4CCOCC4)ccc23)c1` (centres unmarked) [Example 9], the IC50 in series [2] (setting [5]) was less than 0.5 µM; in series [3] (enzymatic, 5 μM ATP), 0.003 to 0.007 µM. Besides, in series [4] (read-out: Ki [Kv1.11 hERG], HEK293 transfected with hERG gene, whole-cell), the Ki was less than 10 µM.

For orientation: Ki means a dissociation constant, usually derived from enzyme kinetics or from competition with a known ligand. A word on the IC50: it is the point on the concentration scale where inhibition reaches its midpoint.
